Earlier results on four compounds are cited in patent US20220339103A1, “Lung-targeted corticosteroid treatment in viral respiratory disease, COVID-19 and ARDS (acute respiratory distress syndrome)” (Bodor Laboratories, Inc., priority 2021, published 2022).

Where two headings read alike, the source gives them in different places.

One data set relates to thymus. Conditions: for TD50, thymolysis potency: subcutaneous cotton pellet granuloma test.
For another data set, the system named is cotton pellet granuloma. Particulars: for ED50, anti-inflammatory activity in the cotton pellet granuloma test: subcutaneous cotton pellet granuloma test.
For data set [1] the following is noted: 0.2% ophthalmic suspension, 159 patients treated >1 yr.
For data set [2], the target named is T1, rat lung cytosol glucocorticoid receptors (Rattus norvegicus, UniProt P06536).
T1 construct: from tissue; host or cells: rat lung cytosol
T1 sequence (P06536 1-795): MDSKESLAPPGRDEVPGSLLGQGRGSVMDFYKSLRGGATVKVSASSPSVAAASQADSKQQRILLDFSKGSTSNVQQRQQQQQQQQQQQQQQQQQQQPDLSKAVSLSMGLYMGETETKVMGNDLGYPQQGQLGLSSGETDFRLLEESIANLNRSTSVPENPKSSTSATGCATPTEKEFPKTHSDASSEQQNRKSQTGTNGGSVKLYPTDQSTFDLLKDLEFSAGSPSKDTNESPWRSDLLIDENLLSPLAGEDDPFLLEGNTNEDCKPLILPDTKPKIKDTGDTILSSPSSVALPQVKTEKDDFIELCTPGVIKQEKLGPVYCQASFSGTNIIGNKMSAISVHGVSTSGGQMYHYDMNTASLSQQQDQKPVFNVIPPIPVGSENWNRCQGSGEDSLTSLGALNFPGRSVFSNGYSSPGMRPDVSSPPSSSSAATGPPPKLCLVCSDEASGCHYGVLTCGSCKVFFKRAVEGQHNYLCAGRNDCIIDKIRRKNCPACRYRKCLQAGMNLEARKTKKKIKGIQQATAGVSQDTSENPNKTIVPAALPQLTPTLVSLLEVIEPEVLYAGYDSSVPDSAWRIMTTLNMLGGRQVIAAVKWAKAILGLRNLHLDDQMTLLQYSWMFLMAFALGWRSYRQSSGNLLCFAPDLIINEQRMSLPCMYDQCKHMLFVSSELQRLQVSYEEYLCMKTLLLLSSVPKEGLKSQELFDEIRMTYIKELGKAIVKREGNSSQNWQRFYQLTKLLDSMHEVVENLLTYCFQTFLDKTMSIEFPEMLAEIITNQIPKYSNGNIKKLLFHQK
Conditions: compared with dexamethasone.

The subject of data set [3] is seasonal allergic rhinitis (SAR) to grass pollen. Particulars: nasal spray, 100-800 μg, 645 SAR patients, vs PLA, p<0.03.
The target of the next data set is Paraoxonase 1 (Homo sapiens, UniProt P27169).
For data set [4] the following is noted: human vasoconstrictor studies.
Data set [5] relates to intraocular pressure. Particulars: long-term use, 28 days or longer; LE 0.2% or 0.5%, prednisolone acetate 1%.
Data set [6] concerns intraocular pressure. Particulars: corneal transplant patients developing very high IOP.
Data set [7] relates to hypothalamic-pituitary axis. Conditions: at any Loteprednol Etabonate use.
Where [8] appears, read: betamethasone 17α-valerate = 1.00.

Sequence of Paraoxonase 1 (P27169 whole entry): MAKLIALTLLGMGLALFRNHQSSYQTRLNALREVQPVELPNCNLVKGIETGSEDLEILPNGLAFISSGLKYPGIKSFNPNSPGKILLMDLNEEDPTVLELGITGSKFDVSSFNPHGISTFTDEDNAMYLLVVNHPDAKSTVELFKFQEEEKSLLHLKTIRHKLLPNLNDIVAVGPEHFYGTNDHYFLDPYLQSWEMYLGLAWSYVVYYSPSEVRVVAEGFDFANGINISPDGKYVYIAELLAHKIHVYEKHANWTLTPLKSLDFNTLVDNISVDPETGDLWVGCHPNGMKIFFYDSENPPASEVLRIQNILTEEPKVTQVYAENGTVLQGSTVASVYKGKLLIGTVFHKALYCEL

Turning to `CCCCC(=O)O[C@]1(C(=O)CO)[C@@H](C)C[C@H]2[C@@H]3CCC4=CC(=O)C=C[C@]4(C)[C@@]3(F)[C@@H](O)C[C@@]21C` [Betamethasone 17α-valerate (BV) (0.12%), Betamethasone 17α-valerate], in the data set with thymus (setting [8]), the “Rel.pot., relative timolysis effect” value is 1.00. The “TD50, thymolysis potency” value in the data set on thymus is 212 μg/pellet. In the data set with cotton pellet granuloma (setting [8]), the “Rel.pot., relative inflammatory effect compared to betamethasone” value (“Rel.pot., relative inflammatory effect” for short) is given as 1.00. Further, the “ED50, anti-inflammatory activity in the cotton pellet granuloma test” value (“ED50, anti-inflammatory activity” below) with cotton pellet granuloma was 84.8 μg/pellet.
As for `CCC(=O)O[C@]1(C(=O)CCl)[C@@H](C)C[C@H]2[C@@H]3CCC4=CC(=O)C=C[C@]4(C)[C@@]3(F)C(=O)C[C@@]21C` [Clobetasone-17α-propi onate (KP) (0.1%), Clobetasone-17α-propi onate], the “Rel.pot., relative timolysis effect” value with thymus (setting [8]) is listed as 19.30. Further, the “TD50, thymolysis potency” value in the data set on thymus was 11 μg/pellet. For the same compound, the “Rel.pot., relative inflammatory effect” value in the data set with cotton pellet granuloma (setting [8]) is recorded as 29.70. The “ED50, anti-inflammatory activity” value in the data set on cotton pellet granuloma is reported as 2.9 μg/pellet.
Turning to `CCCC(=O)O[C@]1(C(=O)CO)CC[C@H]2[C@@H]3CCC4=CC(=O)CC[C@]4(C)[C@H]3[C@@H](O)C[C@@]21C` [Hydrocortisone 17α-butyrate (HB) (0.1%), Hydrocortisone 17α-butyrate], in the data set on thymus (in vivo), the “Rel.pot., relative timolysis effect” value is listed as 0.57. In the data set on thymus, the “TD50, thymolysis potency” value is given as 369 μg/pellet. Further, in the data set on cotton pellet granuloma (setting [8]), the “Rel.pot., relative inflammatory effect” value is on record as 0.70. For the same compound, the “ED50, anti-inflammatory activity” value in the data set with cotton pellet granuloma was 121.0 μg/pellet.
As for `CCOC(=O)O[C@]1(C(=O)OCCl)CC[C@H]2[C@@H]3CCC4=CC(=O)C=C[C@]4(C)[C@H]3[C@@H](O)C[C@@]21C` [Loteprednol Etabonate, chloromethyl 17α-ethoxycarbonyloxy-11β-hydroxyandrosta-1,4-dien-3-one-17β-carboxylate], the “adverse effects of long-term use” value in data set [1] is given as “no reported adverse effects”. Besides, the corticosteroid receptor binding entry in data set [2] is listed as “significantly higher than that of dexamethasone”. Moreover, the “change from baseline in two-week average reflective Total Nasal Symptom Score (TNSS)” value in [3] is recorded as “significantly more efficacious than PLA”. Moreover, the hydrolyzing esterase entry on Paraoxonase 1 was “hydrolyzed by the HDL-connected Paraoxonase 1”. In addition, the topical activity result in data set [4] is listed as “very good topical activity”. Moreover, the “IOP elevation greater than or equal to 10 mmHg, share of subjects” value in the data set with intraocular pressure [5] is given as 0.64%. Also, the “Rel.pot., relative timolysis effect” value with thymus (in vivo) is 0.02. For the same compound, the “TD50, thymolysis potency” value with thymus was 10,000 μg/pellet. The “Rel.pot., relative inflammatory effect” value in the data set with cotton pellet granuloma (in vivo) is recorded as 0.48. For the same compound, the “ED50, anti-inflammatory activity” value in the data set on cotton pellet granuloma is listed as 178.0 μg/pellet. Besides, the “IOP after replacing prednisolone acetate with LE” value in the data set with intraocular pressure [6] was “all IOP-s were returned to normal”. The “suppression of the hypothalamic-pituitary axis” value in [7] was “no significant suppression”.
